# Laboratory results as given in patent publication US20250134870A1, “PATHWAY MODULATOR, PHARMACEUTICAL COMPOSITION HAVING SAME, USE THEREOF, AND THERAPEUTIC METHOD USING SAME” (Jiangsu Yahong Meditech Co., Ltd., priority 2021, published 2025).
# Assays:
# [1] = test system: dextran sulfate sodium (DSS)-induced colitis; assay: DSS-induced colitis in mice: body weight, DAI score, colon density (Examples 1, 3); assay type: in vivo, C57BL/6J mice
# Experimental: 8-10 week old female C57BL/6J mice purchased from Charles River Laboratories were used. The mice were housed in a room at constant temperature (20+2° C.) (5 mice per cage) with a 12-hour light-dark cycle. All protocols were approved by the Institutional Animal Care and Use Committee of WuXi AppTec. These mice were adapted to the housing conditions at the animal experiment center of WuXi AppTec for at least three days prior to the experiment. […] At the experimental endpoint (see hereinafter), mice were euthanized and endpoint samples were obtained. Mice in the normal group were not given 3% DSS aqueous solution to induce colitis and were free to drink blank water. […] The animal body weight and DAI score were assessed under double-blind conditions, that is, the researchers collected the body weight data of mice and observed and scored the stool characteristics and blood stools every day, without knowing the group and dosing regimen. The DAI score was the sum of the weight loss score, stool score and bleeding score. […] The data were analyzed by analysis of variance, specifically by using the following process: using Graph Pad Prism 6.0 software to carry out post-hoc Dunnett's multiple comparison test. […] Data were expressed as mean±S.E.M. The experimental endpoint was 24 hours after administration on Day 8 for the positive drug control group and the Test group 1 #to Test group 7 #of Example 1; the experimental endpoint of the normal group and the solvent group was the same as that of the positive drug control group and Test group 1 #to Test group 7 #.
# [2] = test system: collagen-induced arthritis (CIA); assay: Collagen-induced arthritis (CIA) in mice: body weight, clinical score, AUC, incidence (Example 9); assay type: in vivo, DBA/1 mice; conditions: 50 mg/kg PO QD, 2 weeks
# Experimental: DBA/1 mice were anesthetized with isoflurane and injected subcutaneously with 50 μL of prepared collagen emulsion (containing 200 μg of CII) in the tail. The day of the first immunization was recorded as Day 0, and the subsequent days were marked sequentially. On Day 21, mice were injected with a same volume of collagen emulsion in the tail.
# Dosing lasted for 14 consecutive days. Compounds were prepared every 3 days and stored at 4° C.
# Since Day 28, mice were weighed three times a week and clinical scores were recorded until the end of the experiment.
# Clinical score: scores were given according to different degrees of lesions (redness and swelling, arthrentasis) on a scale of 0-4 points, the highest score was 4 points for each limb and 16 points for each animal.
# Experimental data were represented as mean±standard error. Body weight and clinical score were analyzed by two-way ANOVA, and difference with p<0.05 was considered as significant.
# [3] = test system: 2,4-dinitrobenzenesulfonic acid (DNBS)-induced colitis; assay: DNBS-induced colitis in rats: pathological score of colon tissue (H&E); assay type: in vivo, Wistar rats
# Source text: The proximal, ulcer (corresponding sites can be taken, if there was no ulcer) and distal parts of the colon tissue fixed by neutral buffered formalin were embedded with paraffin, sectioned (thickness 5 μm), and histopathological score was given by H&E staining.
# [4] = test system: dextran sulfate sodium (DSS)-induced colitis; assay: DSS-induced colitis in mice, 3.1% DSS: body weight change and DAI (Example 11); assay type: in vivo, C57BL/6 mice; conditions: 50 mg/kg, QD
# Source text: The experimental mice were housed in an SPF grade animal room for three days for adaptation, and randomly divided into 7 groups (6 model groups and 1 control group) of 10 mice in each group. Dosing of mice started on Day 0 and ended on Day 7.
# The mouse enteritis model of this Example was established by DSS induction: mice in the model group were provided with a 3.1% DSS (dextran sulfate sodium, molecular weight 36,000-50,000) aqueous solution from Day 0 to Day 7, and the DSS aqueous solution was replaced with freshly prepared solution every day to prevent degradation. Mice in the normal control group were provided with normal water. The experimental period was 9 days, and the mice were euthanized and samples were collected at the experimental endpoint.
# The DAI score was assessed daily. The DAI score consisted of 3 parts: body weight change, stool characteristics, and hematochezia (or occult blood) score, and the specific scoring criteria were as shown in Table 49. The DAI scoring of all mice was done by the same staff throughout the experiment.
# Mice were euthanized at the experimental endpoint. The colon of mice was dissected, and photograph was taken, the length was measured, and the contents were removed before weighing.
# The data were expressed as mean±standard error (X±s). Body weight change and disease activity score were statistically analyzed by two-way ANOVA and comparison between groups were performed by Dunnett's test. Other data were statistically analyzed by one-way ANOVA and comparison between groups were performed by Dunnett's test. All analyses were performed using GraphPad Prism software. * P<0.05, ** P<0.01, *** P<0.005, **** P<0.0001 vs. solvent group.
# [5] = mean, G5 Test group 2#, 10 mg/kg PO QD × 7
smiles,measurement,setting,value
NCc1c[nH]c(=S)n1[C@H]1CCc2c(F)cc(F)cc2C1 [Nepicastat],"Body weight on Day 7, g",[1]; 30 mg/kg PO QD × 8 days,19.71 g
same,"Body weight on Day 8, g",[1]; 30 mg/kg PO QD × 8 days,18.88 g
same,"Body weight on Day 8/initial body weight, %",[1]; 30 mg/kg PO QD × 8 days,90.68%
same,DAI score on Day 8,[1]; 30 mg/kg PO QD × 8 days,5.30
same,severity of DSS-induced colitis and disease activity,"[1]; Nepicastat 30, Etamicastat 100, Zamicastat 100 mg/kg PO QD × 8 days (Test groups 1#, 4#, 7#) vs solvent group",ameliorated the severity of DSS-induced colitis and reduced disease activity
same,effect on collagen-induced arthritis in mice,[2],"had some known effects on collagen-induced arthritis in mice, but not as obvious as the positive control drug"
same,total score of colon tissue injury,[3]; 10 mg/kg (Test group 2#),significantly reduce
same,"Pathological score, Distal end, Damage",[3]; [5],0.93
same,"Pathological score, Distal end, Inflammation",[3]; [5],2.07
same,"Pathological score, Proximal end, Damage",[3]; [5],0.47
same,"Pathological score, Proximal end, Inflammation",[3]; [5],1.60
same,"Pathological score, Total score, Damage",[3]; [5],3.53
same,"Pathological score, Total score, Inflammation",[3]; [5],6.07
same,"Pathological score, Ulcer end, Damage",[3]; [5],2.13
same,"Pathological score, Ulcer end, Inflammation",[3]; [5],2.40
same,"symptoms caused by DSS-induced colitis (body weight loss, diarrhea, hematochezia)",[4],"effectively alleviated the symptoms of body weight loss, diarrhea and hematochezia"
same,DSS-induced body weight loss,[4]; vs solvent group,effectively alleviated DSS-induced body weight loss
same,disease activity score (DAI),[4]; vs solvent group,significantly lower than that in the solvent group
